The record followed here is paper PMC12213745, “Compounds from Cyclocarya paliurus leaves inhibit binary division of methicillin-resistant Staphylococcus aureus by disrupting FtsZ dynamic” (Frontiers in Microbiology, 2025).

Each structure is given as a SMILES string. ≈ marks a conversion by molar mass, not a printed value. Read-outs that look alike come from different tables or passages of the source. Some results are limits rather than exact numbers.

One experiment relates to E. coli ATCC25922. As to the kind of experiment: MIC, broth microdilution (CLSI). It is filed as cell-based. The note with it: Escherichia coli. The source says:
(§1) Staphylococcus aureus ATCC25923 and Escherichia coli ATCC25922 were obtained from the American Type Culture Collection (ATCC, Manassas, VA, USA). The Methicillin-resistant S. aureus (MRSA) clinical isolate MRSA-4, previously confirmed as mecA-positive and characterized for its antibiotic resistance profile ([Sun et al., 2023]), was used in this study. Staphylococcus epidermidis (GDMCC 1.143), Enterococcus faecalis (GDMCC 1.164), and Salmonella enterica subsp. enterica (GDMCC 1.1114) were obtained from the Guangdong Microbial Culture Collection Center (GDMCC, Guangzhou, China). The Pseudomonas aeruginosa PA14 strain was kindly provided by Professor Min Wu (Southwest Medical University, China). All bacterial strains were routinely cultured in Mueller-Hinton broth (MHB) or Luria-Bertani (LB) broth medium at 37°C with shaking at 200 rpm. Vancomycin was purchased from Solarbio Science & Technology Co., Ltd. (Beijing, China), and oxacillin was obtained from Taiji Group Hengsheng Pharmaceutical Co., Ltd. (Chengdu, China). The polyclonal rabbit primary anti-body to FtsZ was purchased from Abcam PLC (Cambridge, UK). Alexa488-conjugated goat anti-rabbit IgG was purchased from ZSGB-BIO Biotechnology (Beijing, China). DAPI staining solution was purchased from Beyotime Biotechnology (Shanghai, China).
(§2) The minimum inhibitory concentrations (MICs) of the test compounds (AA, MA, and UA) were determined using the standard broth microdilution method in accordance with the Clinical and Laboratory Standards Institute (CLSI) guidelines ([Humphries et al., 2021]). Bacteria were cultured in MHB or LB broth at 37°C with shaking (200 rpm) to the logarithmic phase, then diluted to a final density of 1 × 10^6 CFU/mL. Test compounds (dissolved in DMSO) and positive controls (vancomycin and oxacillin) were diluted in MHB and serially twofold diluted in 96-well plates. Each well was inoculated with 100 μL of bacterial suspension (1 × 10^6 CFU/mL), yielding a final bacterial density of 5 × 10^5 CFU/mL and a total volume of 200 μL. The final concentrations tested were 128 to 1 μg/mL for AA, MA, and UA; 16 to 0.5 μg/mL for vancomycin; and 64 to 0.0625 μg/mL for oxacillin. DMSO was used as a solvent control. Plates were incubated statically at 37°C for 18–24 h. After incubation, the OD600 was measured using a microplate reader (SpectraMax i3x, Molecular Devices, CA, USA). The MIC was defined as the lowest compound concentration that caused ≥ 90% inhibition of bacterial growth compared to the drug-free growth control. All tests were performed in three independent biological replicates.
(§3) Following the isolation and identification of AA, MA, and UA from ECPL, we evaluated their antibacterial activity and spectrum. The MICs of the compounds were determined against MRSA-4, S. aureus ATCC25923, S. epidermidis, and E. faecalis (Gram-positive), as well as P. aeruginosa PA14, E. coli ATCC25922, and S. enterica subsp. Enterica (Gram-negative) using the standard broth microdilution method in accordance with CLSI guidelines ([Humphries et al., 2021]).
Background: Dilution methods test growth across graded concentrations, often in twofold steps.

For a further experiment, the system named is E. faecalis. In words: MIC, broth microdilution (CLSI). To be noted: Enterococcus faecalis. It counts as cell-based.
Description: as §1, §2, §3

The subject of the next experiment is P. aeruginosa PA14. In words: MIC, broth microdilution (CLSI). It is filed as cell-based. To be noted: Pseudomonas aeruginosa.
Description: as §1, §2, §3

Experiment [1] deals with S. aureus ATCC25923. As to the kind of experiment: MIC, broth microdilution (CLSI). To be noted: Staphylococcus aureus. It is filed as cell-based.
Description: as §1, §2, §3

The subject of another experiment is S. epidermidis (1.143). In words: MIC, broth microdilution (CLSI). It is filed as cell-based. The note with it: Staphylococcus epidermidis.
Description: as §1, §2, §3

The test system of experiment [2] is MRSA-4. As to the kind of experiment: MIC, broth microdilution (CLSI). It counts as cell-based, Methicillin-resistant S. aureus. To be noted: Staphylococcus aureus.
Description: as §1, §2, §3

In experiment [3] the test system is S. enterica subsp. Enterica (1.1114). In words: MIC, broth microdilution (CLSI). It is filed as cell-based, Salmonella enterica subsp. enterica. To be noted: Salmonella enterica.
Description: as §1, §2, §3

Experiment [4] deals with MRSA-4. As to the kind of experiment: Time-dependent killing assay. It counts as cell-based, Methicillin-resistant S. aureus. The note with it: 2 × MIC. The protocol: An overnight culture of MRSA-4 was diluted 1:100 in fresh MHB and incubated at 37°C with shaking (200 rpm) until reaching mid-log phase (OD600 = 0.4–0.6). The culture was then adjusted to 1 × 10^6 CFU/mL and treated with AA, MA, or UA at concentrations of 1×, 2×, and 4 × MIC. 2 × MIC of vancomycin was used as a positive control, and an equivalent volume of DMSO served as the negative control. The cultures were incubated at 37°C with shaking (200 rpm) during the assay. At designated time points (0, 1, 2, 4, 8, and 24 h), samples were collected, serially diluted tenfold in sterile PBS, and 100 μL of appropriate dilutions were plated on LB agar. Plates were incubated at 37°C for 18–24 h, and viable bacteria were quantified. All experiments were performed in biological triplicates.
We next performed time-kill kinetics assays to characterize the time-dependent antibacterial effects of AA, MA, and UA against MRSA-4. Bacterial cultures were exposed to AA, MA, and UA at 1×, 2×, and 4 × their respective MICs, and viable CFU were counted at designated time points (0, 1, 2, 4, 8, and 24 h). As shown in the time-kill curves (Figure 1), treatment with 1 × or 2 × MIC of AA, MA, or UA led to an initial reduction in bacterial load within the first 2 h.

Experiment [5] deals with S. aureus ATCC25923. In words: SEM analysis, cell long axis. It counts as cell-based, Staphylococcus aureus. To be noted: 2 × MIC, 2 h, mean ± SD, PBS control 0.52 ± 0.05. The protocol:
(§4) Scanning electron microscopy (SEM) was used to observe the morphological changes in bacterial cells treated with the isolated compounds. S. aureus ATCC 25923 and MRSA-4 were grown in MHB to mid-log phase (OD600 = 0.4–0.6) as previously described. The bacteria cultures were treated with AA, MA, or UA at 2 × MIC for 2 h at 37°C with shaking at 150 rpm. Untreated cultures (PBS group) served as the growth control. After incubation, bacterial cells were harvested by centrifugation and washed three times with PBS (pH 7.2). Coverslips (8 mm diameter) were cleaned with absolute ethanol under ultrasonication, air-dried, immersed in 0.1% (w/v) chitosan solution (dissolved in 1% acetic acid) for 5 s, and air-dried again at room temperature ([Su et al., 2022]). A 25 μL aliquot of the washed bacterial suspension was added to each coverslip and allowed to adhere for 1 h at room temperature. Adhered cells were fixed with 1 mL of 2.5% (v/v) glutaraldehyde at 4°C overnight. Fixed samples were rinsed 2–3 times with PBS (5 min per rinse), then dehydrated through a graded ethanol series: 50, 70, and 90% ethanol (each once for 5 min), followed by 100% ethanol (three times for 5 min each). After dehydration, samples were air-dried overnight at room temperature. SEM imaging was performed using an EVO 10 scanning electron microscope (Zeiss, Jena, Germany). Cell long-axis statistical analysis was conducted using ImageJ software (Version 1.42q, National Institutes of Health, MD, USA).
(§5) Having established the antibacterial activity of AA, MA, and UA, we next examined their effects on bacterial morphology. We employed SEM to examine the alterations induced by these compounds in S. aureus ATCC25923 and MRSA-4. Bacterial cultures were treated with AA, MA, or UA at 2 × MIC for 2 h, while untreated (PBS group) cultures served as negative controls. […] In PBS groups, both S. aureus ATCC25923 and MRSA-4 maintained typical spherical morphology with smooth and intact surfaces.

The subject of experiment [6] is MRSA-4. In words: SEM analysis, cell long axis. To be noted: 2 × MIC, 2 h, mean ± SD, PBS control 0.53 ± 0.04. It counts as cell-based, Methicillin-resistant S. aureus. The protocol: as §4, §5

The MIC is the least concentration at which growth counts as inhibited. For the molecule `Cc1onc(-c2ccccc2)c1C(=O)N[C@@H]1C(=O)N2[C@@H]1SC(C)(C)[C@@H]2C(=O)O` [Oxa, Oxacillin, reference compound], the MIC in the experiment on E. coli ATCC25922 (E. coli ATCC25922, ≥ 90% growth inhibition, 18–24 h, read-out: MIC) is more than 64 µg/mL; with E. faecalis (E. faecalis, ≥ 90% growth inhibition, 18–24 h, read-out: MIC), 8 µg/mL (≈ 19.9 µM); in the experiment with P. aeruginosa PA14 (P. aeruginosa PA14, ≥ 90% growth inhibition, 18–24 h, read-out: MIC), more than 64 µg/mL; in the experiment with S. aureus ATCC25923 [1] (S. aureus ATCC25923, ≥ 90% growth inhibition, 18–24 h, read-out: MIC), 0.125 µg/mL (≈ 0.311 µM); with S. epidermidis (1.143) (S. epidermidis (1.143), ≥ 90% growth inhibition, 18–24 h, read-out: MIC) it was 0.25 µg/mL (≈ 0.623 µM); with MRSA-4 [2] (MRSA-4, ≥ 90% growth inhibition, 18–24 h, read-out: MIC), 64 µg/mL (≈ 159 µM). Also, the MIC in experiment [3] (S. enterica subsp. Enterica (1.1114), ≥ 90% growth inhibition, 18–24 h, read-out: MIC) is more than 64 µg/mL.
Regarding `CN[C@H](CC(C)C)C(=O)N[C@H]1C(=O)N[C@@H](CC(N)=O)C(=O)N[C@H]2C(=O)N[C@H]3C(=O)N[C@H](C(=O)N[C@H](C(=O)O)c4cc(O)cc(O)c4-c4cc3ccc4O)[C@H](O)c3ccc(c(Cl)c3)Oc3cc2cc(c3O[C@@H]2O[C@H](CO)[C@@H](O)[C@H](O)[C@H]2O[C@H]2C[C@](C)(N)[C@H](O)[C@H](C)O2)Oc2ccc(cc2Cl)[C@H]1O` [Van, Vancomycin, reference compound], the MIC in the experiment with E. coli ATCC25922 (ATCC25922) is more than 16 µg/mL; in the experiment on E. faecalis, 1 µg/mL (≈ 0.69 µM); in the experiment on P. aeruginosa PA14 (PA14), more than 16 µg/mL; with S. aureus ATCC25923 [1] (ATCC25923), 2 µg/mL (≈ 1.38 µM); with S. epidermidis (1.143) it was 2 µg/mL (≈ 1.38 µM); in the experiment on MRSA-4 [2] (MRSA), 2 µg/mL (≈ 1.38 µM). In experiment [3], the MIC was more than 16 µg/mL. Also, the “time to reduce bacterial counts below the detection limit” value in the experiment with MRSA-4 [4] is recorded as not above 8 h. For the same molecule, the “length of long axis of cells” value in the experiment on S. aureus ATCC25923 [5] is listed as 0.61 ± 0.06 μm; in the experiment with MRSA-4 [6] it was 0.57 ± 0.06 μm.
